Assay results taken from patent publication US20220168300A1, “Methods of Managing Vascular Conditions and Diabetic Peripheral Neuropathies” (Emory University, priority 2019, published 2022).

Legend:
[1] = leading to increases in H3/H4 acetylation in brain tissue; cited from earlier work
[2] = system: Diabetic EPCs (D-EPCs); assay: DNA methylation (MSRE-PCR) and gene expression of angiogenic genes in D-EPCs; type: cell-based, rat
From the text: Rescue of epigenetic silencing of angiogenic genes in D-EPCs Diabetic EPCs (D-EPCs) have high methylation in the promoter regions of key angiogenic and neurotrophic genes and small molecular epigenetic regulators can reverse these changes, increase gene expression and improve cellular functions. To prepare D-EPCs streptozotocin (STZ) was used to induce diabetic conditions. Differential expression of angiogenic genes was investigated between normal EPCs (N-EPCs) and D-EPCs using an Angiogenesis Microarray kit. The expression of many angiogenic genes was suppressed in D-EPCs. In this disclosure, histone deacetylase (HDAC) inhibitors, i.e., Vorinostat (Zolinza, SAHA), Belinostat (Beleodaq, PXD-101), and Quisinostat (JNJ-26481585), were used. The preliminary experiments were performed using rat EPCs as well as human and rat MSCs. To test the reversible changes of gene expression and epigenetic modifications in D-EPCs by small molecule epigenetic regulators, epigenetic profiling studies were performed using methylation-sensitive restriction enzyme (MSRE)-PCR assays. An HDAC inhibitor, valproic acid (VPA), was used as the epigenetic regulator.

[3] = Blood glucose and body weight in diabetic mice; type: in vivo; details: 50 mg/kg/day intraperitoneal for 4 weeks
Description: To investigate the preventive therapeutic effects of direct injection of belinostat on diabetic nerves, streptozotocin (STZ)-induced diabetic mice were randomly assigned to solvent-treated (DM) as vehicle controls or HDAC inhibitor-treated (DM+HDACi) groups. […] Belinostat was resuspended in 45% (2-hydroypropyl)-beta-cyclodextrin (HP-β-CD) and injected into mice via the intraperitoneal route at 50 mg/kg/day for 4 weeks.

[4] = system: streptozotocin (STZ)-induced diabetic mice; assay: Sensory and motor nerve conduction velocities in diabetic neuropathy model; type: in vivo
Description: To investigate the preventive therapeutic effects of direct injection of belinostat on diabetic nerves, streptozotocin (STZ)-induced diabetic mice were randomly assigned to solvent-treated (DM) as vehicle controls or HDAC inhibitor-treated (DM+HDACi) groups. […] After intraperitoneal injection of belinostat or an equal volume of solvent vehicle (HP-β-CD), both sensory and motor nerve conduction velocities (NCVs) were measured for 18 weeks at every week (n=11-14, each group) from 0 week after treatment. Non-diabetic mice, which received solvent vehicle (HP-j-CD), were used as controls (NDM).

[5] = system: streptozotocin (STZ)-induced diabetic mice; assay: Tactile allodynia (von Frey hair testing); type: in vivo
Description: To investigate the preventive therapeutic effects of direct injection of belinostat on diabetic nerves, streptozotocin (STZ)-induced diabetic mice were randomly assigned to solvent-treated (DM) as vehicle controls or HDAC inhibitor-treated (DM+HDACi) groups. […] To investigate preventive effects of belinostat in diabetic neuropathy, tactile response threshold, thermal withdrawal latency, and rotarod performance were tested. For assay of tactile allodynia, mice were transferred to a glass cage with a wire mesh floor allowing access to the plantar surface of the hind paws. Behavioral accommodation was allowed for approximately 15 min until cage exploration and major grooming activities ceased.

[6] = system: streptozotocin (STZ)-induced diabetic mice; assay: Paw thermal withdrawal latency; type: in vivo
Description: To investigate the preventive therapeutic effects of direct injection of belinostat on diabetic nerves, streptozotocin (STZ)-induced diabetic mice were randomly assigned to solvent-treated (DM) as vehicle controls or HDAC inhibitor-treated (DM+HDACi) groups. […] For measurement of paw thermal withdrawal latency, mice were placed in an observation chamber on top of the thermal testing apparatus and allowed to acclimate to the warmed glass surface (30° C.) and surroundings for 15 min. The mobile heat source was maneuvered to below the center of the right hind paw and turned on, a process that activates a timer and locally warms the glass surface at a rate of approximately 1° C./s. When the mouse withdrew the paw, movement sensors stopped the timer and turned off the heat source. Right hind paw was measured three times and the mean of three measurements used as a composite source for each mouse. The response latency was converted to the response temperature using a time: floor temperature calibration curve that was constructed each day to allow for day-to-day variations in the surface heating rate.

[7] = system: streptozotocin (STZ)-induced diabetic mice; assay: Rotarod performance test; type: in vivo
Description: To investigate the preventive therapeutic effects of direct injection of belinostat on diabetic nerves, streptozotocin (STZ)-induced diabetic mice were randomly assigned to solvent-treated (DM) as vehicle controls or HDAC inhibitor-treated (DM+HDACi) groups. […] For rotarod performance test, mice were placed on a rotarod apparatus to assess motor coordination and physical condition. Before the training session, each mouse was habituated to stay on the spindle with slow constant speed for 5 min. Mice were trained for 5 min at 45 rpm before measurement. The horizontal rod rotating by 45 rpm and the maximal length of observation time for each trial was 5 min.

[8] = system: streptozotocin (STZ)-induced diabetic mice; assay: Vascularization of sciatic nerves (FITC-conjugated BSL1); type: in vivo; details: DM+HDACi, 18 weeks after treatment
[9] = system: streptozotocin (STZ)-induced diabetic mice; assay: Intraepidermal nerve fiber density (PGP9.5 staining) in hind paw plantar skin; type: in vivo; details: DM+HDACi group
From the text: To investigate the preventive therapeutic effects of direct injection of belinostat on diabetic nerves, streptozotocin (STZ)-induced diabetic mice were randomly assigned to solvent-treated (DM) as vehicle controls or HDAC inhibitor-treated (DM+HDACi) groups. […] To evaluate the protective effect of belinostat on diabetic intraepidermal nerve fiber, we stained IENF in hind paw plantar skin with pan-neuronal marker PGP9.5 and counted the number of fibers throughout the epidermis relative to length of tissue.

[10] = system: streptozotocin (STZ)-induced diabetic mice; assay: Light and electron microscopy of sciatic nerve myelinated fibers; type: in vivo; details: DM+HDACi
From the text: To investigate the preventive therapeutic effects of direct injection of belinostat on diabetic nerves, streptozotocin (STZ)-induced diabetic mice were randomly assigned to solvent-treated (DM) as vehicle controls or HDAC inhibitor-treated (DM+HDACi) groups. […] It was examined whether belinostat could affect the ultrastructure of diabetic nerves, which is characterized by morphological alterations in the myelin sheath, a hallmark of DN. Accordingly, light microscopy and transmission electron microscopy were performed on sciatic nerves obtained at 18 weeks after STZ injection. The alternation of myelination pattern was categorized into four groups: decompaction, infolding, focal lysis, and splitting. […] Axonal atrophy is associated with slowing of nerve conduction but is difficult to distinguish from loss of large diameter axons. A reduced index of circularity and an increased g-ratio supports the axonal atrophy. […] A loss of large diameter axons in the peripheral nerve system is the most frequent consequence of metabolic diseases such as diabetes.

[11] = system: HUVECs, Schwann cells (S16), and DRG neurons (ND7/23); assay: Quantitative RT-PCR of gene expression in cells cultured in diabetic (high glucose) condition; details: in vitro experimental data using cells
Description: To determine effects of different types of HDAC inhibitors on different target cells, cells were cultured in diabetic condition (450 mg/dl glucose, 7 days) and were treated HDAC inhibitors for 7 days.

[12] = sciatic nerve 18 weeks after STZ, n=406
[13] = sciatic nerve, P<0.001 versus DM

SMILES: O=C(CCCCCCC(=O)Nc1ccccc1)NO [SAHA, suberoylanilide hydroxamic acid]
- blood-brain-barrier (BBB) crossing [1]: can cross the blood-brain-barrier

SMILES: CCCC(CCC)C(=O)O [VPA, valproic acid]
- angiogenic gene expression [2]: enhanced gene expression
- DNA methylation at promoters of angiogenic genes ([2]; MSRE-PCR): reduced DNA methylation

SMILES: O=C(/C=C/c1cccc(S(=O)(=O)Nc2ccccc2)c1)NO [Belinostat, (E)-N-hydroxy-3-[3-(phenylsulfamoyl)phenyl]prop-2-enamide]
- blood glucose levels and animal body weight compared to DM group [3]: did not significantly alter
- sensory NCV ([4]; DM+HDACi group, over 15 weeks, 50 mg/kg/day i.p. for 4 weeks, P<0.001 versus DM): 34.76±0.61 m/s
- motor NCV ([4]; DM+HDACi group, over 15 weeks, 50 mg/kg/day i.p. for 4 weeks, P<0.05 versus DM): 51.15±2.60 m/s
- nerve conduction velocities (NCVs), effect in words ([4]; FIG. 1A, direct injection, diabetic mice): improved
- motor NCVs, effect in words ([4]; FIG. 1B, diabetic mice over 15 weeks): significantly improved
- paw withdrawal threshold (von Frey) ([5]; DM+HDACi group at 3 weeks of diabetes): 0.15 ± 0.09 g
- paw withdrawal threshold (von Frey) ([5]; DM+HDACi group at 14 weeks after HDAC inhibitor injection, P<0.001 versus DM): 1.33 ± 0.30 g
- paw withdrawal thresholds, effect in words ([5]; FIG. 2A, 14 weeks after belinostat injection): recovered to nondiabetic group
- paw withdrawal temperature ([6]; DM+HDACi group at 12 weeks of diabetes, P<0.001 versus DM): 34.30±0.24 °C
- thermal withdrawal latency, effect in words ([6]; FIG. 2B, HDAC treated group): maintained
- rotarod fall latency ([7]; DM+HDACi group, 45 rpm, max 5 min): 254.77 ± 25.23 s
- rotarod performance, DM versus DM+HDACi ([7]; FIG. 2C): no significant difference
- vascularity in sciatic nerves [8]: increased vascularity
- number of intraepidermal nerve fibers (IENF) [9]: 30.61±1.83 IENF/mm
- g-ratio of myelinated sciatic nerve [10]: 0.65±0.0044
- reduction of axonal circularity compared to NDM ([10]; sciatic nerve): 10.3%
- altered myelination pattern: decompaction [10, 12]: 6.35%
- altered myelination pattern: focal lysis [10, 12]: 7.22%
- altered myelination pattern: infolding [10, 12]: 1.49%
- altered myelination pattern: splitting [10, 12]: 0%
- axon diameter of myelinated axons [10, 13]: 4.17 ± 0.1 µm
- index of circularity of axon [10, 13]: 0.70
- upregulation of gene expression in vitro, compared to vorinostat and quisinostat [11]: superior properties
